Reference: patent US20220257774A1, “AROMATIC AMINE AR AHD BET TARGETING PROTEIN DEGRADATION CHIMERA COMPOUND AND USE” (HINOVA PHARMACEUTICALS INC., priority 2019, published 2022)
Read-outs that look alike come from different tables or passages of the source.

Columns and labels:
Assay type in all cases: cell-based
[1] = target: T1, BRD4 (Homo sapiens, UniProt O60885); assay: Down-regulation/degradation of BRD4 determined by Western blot in CWR22RV1 cells; settings: concentration 100 nM, 24 h
T1 construct: CWR22RV1 cells were subcultured in cell culture media; endogenous in cells; host or cells: CWR22RV1 cells
Method: (§1) The Down-Regulation on the Protein Expression of Androgen Receptors AR and Brd4 Determined by Western Blot CWR22RV1 cells (National Collection of Authenticated Cell Cultures. TCHu100) FBS (Gibco, Cat. No. 10099-141) 0.01M PBS (Biosharp. Cat. No. 162262) RIPM1640 (Hyclone, Cat. No. 308090.01) Penicillin-Streptomycin (Hyclone. Cat. No. SV30010) DMSO (Sigma. Cat. No. D5879) Centrifuge tube, 15 ml (Excell Bio. Cat. No. CS015-0001) Cell culture plate (Excell Bio. Cat. No. CS016-0128) 6-well cell culture cluster (Corning, Cat. No. 3516) RIPA lysate buffer (Beyotime, Cat. No. P0013B) Protein loading buffer (Beyotime, Cat. No. P0015L) CA protein assay kit (Beyotime, Cat. No. P0012) SDS-PAGE gel preparation kit (Chengdu Baihe Technology Co., Ltd. Cat. No. PG112) Anti-β-tubulin mouse mAb (Zen Bioscience, Cat. No. 200608) Androgen Receptor ([…]) XP Rabbit mAb (CST. Cat. No. 5153) Anti-cMyc(D3N8F) Rabbit mAb (CST. Cat. No. 13987) Anti-BRD4(E2A7X) rabbit mAb (CST, Cat. No. 13440) Peroxidase Affinipure(HRP) Goat Anti-Mouse IgG (Zen Bioscience, Cat. No. 511103) Peroxidase Affinipure(HRP) Goat Anti-Rabbit IgG (Zen Bioscience, Cat. No. 511203) TBST (Biosharp. Cat. No. B[…]) ECL chemiluminescence kit (Beyotime, Cat. No. […]1 cells were subcultured in cell culture media, and then the cells in good growth condition were seeded in a 6-well plate at 2 ml/well (1×10^6 cells/well), and cultured overnight in a 37° C., 5% CO2 cell incubator. 2) The drug was prepared as a 10 mM stock solution with dimethyl sulfoxide (DMSO). […] The plate was gently tapped to thoroughly mix. In addition, the experiment included negative control wells (containing equal amount of DMSO) and positive control wells. 3) After culturing 24 hi, the cells were lysed with RIPA cell lysate, and the protein was extracted. […] The first antibody (Androgen Receptor ([…]) XP Rabbit mAb. Anti-cMyc(D3N8F) Rabbit mAb, Anti-BRD4(E2A7X) rabbit mAb and Anti-β-Tubulin Mouse mAb) was added and incubated overnight at 4° C. The membrane was rinsed with TBST solution three times, 10 min for each time. The secondary antibody (horseradish peroxidase labeled goat anti mouse IgG) was added and incubated at room temperature for 2 h, and then the membrane was washed with TBST solution three times, 10 m for each time. Finally. ECL chemiluminescence solution was added, and then photos were taken with automatic chemiluminescence instrument to collect pictures for analysis.

[2] = system: Androgen receptor (AR); assay: Down-regulation/degradation of AR determined by Western blot in CWR22RV1 cells; settings: concentration 100 nM, 24 h
Method: as §1

[3] = system: LNCaP/AR cells; assay: Inhibition of the proliferation of LNCap/AR cells (CCK-8); settings: read-out: LNCap/AR IC50
Summary of the method: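 Proliferation was read by CCK-8 (OD 450 nm, 1 h) after six days of compound exposure. Cells were seeded at 1000 per well overnight, then dosed in duplicate over nine 3-fold steps with a top final concentration of 10 μM in 0.1% DMSO; IC50 was fitted from inhibition curves.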

[4] = system: 22RV1 cells; assay: Inhibition of the proliferation of drug-resistant prostate cancer cell 22RV1 (CCK-8); settings: 22RV1 cells (enzalutamide-resistant), same method
Summary of the method: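 22RV1 cells, 1000/well in RPMI1640 with 10% FBS, treated in duplicate with 9-point 3-fold dilutions from 10 μM (0.1% DMSO final). After 6 days at 37 °C, CCK-8 added for 1 h and OD450 read. IC50 from dose-response inhibition fit.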

[5] = 144 h, LNCaP/AR cells, 6 days culture, CCK-8
[6] = LNCaP/AR cells, 6 days culture, CCK-8

| SMILES | BRD4 (% degradation) [1] | AR (% degradation) [2] | IC50 [3, 5] | IC50 ([4]; Homo sapiens) | IC50 ([3]; LNCaP/AR, 144 h) | IC50 [4] | IC50 [3, 6] |
| --- | --- | --- | --- | --- | --- | --- | --- |
| Cc1ccc(-c2c(C)noc2C)cc1N(CCCCCOCC(=O)N[C@H](C(=O)N1C[C@H](O)C[C@H]1C(=O)N[C@@H](C)c1ccc(-c2scnc2C)cc1)C(C)(C)C)c1ccc(-n2ccnc2)c(Br)c1 [Compound 10, (2S,4R)-1-((S)-2-(2-((5-((3-bromo-4-(1H-imidazol-1-yl)phenyl)(5-(3,5-dimethylisoxazol-4-yl)-2-methylphenyl)amino)n-pentyl)oxy)acetylamino)-3,3-dimethylbutyryl)-4-hydroxy-N—((S)-1-(4-(4-methylthiazol-5-yl)phenyl)ethyl)pyrrolidinyl-2-formamide] | B (79%-50% of the target protein was degraded) | B (79%-50% of the target protein was degraded) | < 100 nM |  |  |  |  |
| Cc1ccc(-c2c(C)noc2C)cc1N(CC1CC(Nc2cc3c(cc2F)C(=O)N(C2CCC(=O)NC2=O)C3=O)C1)c1ccc(C2(C#N)CC2)cc1 (stereo not shown) [Compound 37] | D (<20% of the target protein was degraded) | D (<20% of the target protein was degraded) | 501 to 2000 nM | 101 to 500 nM |  |  |  |
| Cc1ccc(-c2c(C)noc2C)cc1N(CC1CC(Nc2cc3c(cc2F)C(=O)N(C2CCC(=O)NC2=O)C3)C1)c1ccc(C2(C#N)CC2)cc1 (stereo not shown) [Compound 39] | C (49%-20% of the target protein was degraded) | C (49%-20% of the target protein was degraded) | 501 to 2000 nM | < 100 nM |  |  |  |
| Cc1ccc(-c2c(C)noc2C)cc1N(CCCCNc1cc2c(cc1F)C(=O)N(C1CCC(=O)NC1=O)C2)c1ccc(C2(C#N)CC2)cc1 (stereo not shown) [Compound 43, 1-(4-((5-(3,5-Dimethylisoxazol-4-yl)-2-methylphenyl)(4-((2-(2,6-dioxopiperidin-3-yl)-6-fluoro-1-oxoisoindolin-5-yl)amino)butyl)amino)phenyl)cyclopropane-1-nitrile] | C (49%-20% of the target protein was degraded) | B (79%-50% of the target protein was degraded) | 501 to 2000 nM | < 100 nM |  |  |  |
| Cc1ccc(-c2c(C)noc2C)cc1N(CCCCCNc1ccc2c(c1)CN(C1CCC(=O)NC1=O)C2=O)c1ccc(C#N)c(Cl)c1 (stereo not shown) [Compound 63, 2-chloro-4-((5-(3,5-dimethylisoxazol-4-yl)-2-methylphenyl)(5-((2-(2,6-dioxopiperidin-3-yl)-1-oxoisoindolin-5-yl)amino)pentyl)amino)benzonitrile] | C (49%-20% of the target protein was degraded) | C (49%-20% of the target protein was degraded) |  | < 100 nM | < 100 nM |  |  |
| Cc1ccc(-c2c(C)noc2C)cc1N(c1ccc(C2(C#N)CC2)cc1)C1CN([C@H]2C[C@@H](Nc3cc4c(cc3F)CN([C@H]3CCC(=O)NC3=O)C4=O)C2)C1 [Compound 68, 1-(4-((5-(3,5-dimethylisoxazol-4-yl)-2-methylphenyl)(1-((1s,3s)-3-((2-(2,6-dioxopiperidin-3-yl)-6-fluoro-3-oxoisoindolin-5-yl)amino)cyclobutyl)azetidin-3-yl)amino)phenyl)cyclopropane-1-nitrile] | A (>80% of the target protein was degraded) | D (<20% of the target protein was degraded) |  |  |  | < 100 nM | < 100 nM |
| Cc1ccc(-c2c(C)noc2C)cc1N(c1ccc(C2(C#N)CC2)cc1)C1CN([C@H]2C[C@H](Nc3cc4c(cc3F)CN([C@@H]3CCC(=O)NC3=O)C4=O)C2)C1 [Compound 70] | C (49%-20% of the target protein was degraded) | C (49%-20% of the target protein was degraded) |  |  |  | < 100 nM | 501 to 2000 nM |
| Cc1ccc(-c2c(C)noc2C)cc1N(CC(C)OC1CCN(c2ccc3c(c2)C(=O)N(C2CCC(=O)NC2=O)C3=O)CC1)c1ccc(C2(C#N)CC2)cc1 (stereo not shown) [Compound 106] | B (79%-50% of the target protein was degraded) | C (49%-20% of the target protein was degraded) | 501 to 2000 nM | < 100 nM |  |  |  |
| Cc1ccc(-c2c(C)noc2C)cc1N(CCOC1(C)CN(c2cc3c(cc2F)C(=O)N(C2CCC(=O)NC2=O)C3=O)C1)c1ccc(C2(C#N)CC2)cc1 (stereo not shown) [Compound 111, 1-(4-((5-(3,5-Dimethylisoxazol-4-yl)-2-methylphenyl)(2-((1-(2-(2,6-dioxopiperidin-3-yl)-6-fluoro-1,3-dioxoisoindolin-5-yl)-3-methylazetidin-3-yl)oxy)ethyl)amino)phenyl)cyclopropanecarbonitrile] | D (<20% of the target protein was degraded) | D (<20% of the target protein was degraded) | > 2000 nM | 101 to 500 nM |  |  |  |
| Cc1ccc(-c2c(C)noc2C)cc1N(CCOC1(C)CN(c2cc3c(cc2F)C(=O)N(C2CCC(=O)NC2=O)C3)C1)c1ccc(C2(C#N)CC2)cc1 (stereo not shown) [Compound 113, 1-(4-((5-(3,5-Dimethylisoxazol-4-yl)-2-methylphenyl)(2-((1-(2-(2,6-dioxopiperidin-3-yl)-6-fluoro-1-oxoisoindolin-5-yl)-3-methylazetidin-3-yl)oxy)ethyl)amino)phenyl)cyclopropanecarbonitrile] | C (49%-20% of the target protein was degraded) | D (<20% of the target protein was degraded) | 501 to 2000 nM | 501 to 2000 nM |  |  |  |
| Cc1ccc(-c2c(C)noc2C)cc1N(CC1CCN(CCNc2ccc3c(c2)C(=O)N(C2CCC(=O)NC2=O)C3=O)CC1)c1ccc(C2(C#N)CC2)cc1 (stereo not shown) [Compound 117] | B (79%-50% of the target protein was degraded) | D (<20% of the target protein was degraded) | 501 to 2000 nM | < 100 nM |  |  |  |
| Cc1ccc(-c2c(C)noc2C)cc1N(CCCCCNc1ccc2c(c1)CN(C1CCC(=O)NC1=O)C2=O)c1ccc(C2(C#N)CC2)cc1 (stereo not shown) [Compound 145, 1-(4-((5-(3,5-dimethylisoxazol-4-yl)-2-methylphenyl)(5-((2-(2,6-dioxopiperidin-3)-1-isoindolinone-5-yl))amino)pentyl)amino)phenylcyclopropanecarbonitrile] | C (49%-20% of the target protein was degraded) | C (49%-20% of the target protein was degraded) | < 100 nM |  |  |  |  |
| Cc1ccc(-c2c(C)noc2C)cc1N(CCCCCNc1ccc2c(c1)C(=O)N(C1CCC(=O)NC1=O)C2=O)c1ccc(C2(C#N)CC2)cc1 (stereo not shown) [Compound 147, 1-(4-((5-(3,5-Dimethylisoxazol-4-yl)-2-methylphenyl)(5-((2-(2,6-dioxopiperidin-3)-1,3-dicarbonylisoindolin-5))amino)pentyl)amino)phenylcyclopropanecarbonitrile] | A (>80% of the target protein was degraded) | C (49%-20% of the target protein was degraded) | < 100 nM |  |  |  |  |
